Test results published in ChEMBL document CHEMBL3259797, “Radiosyntheses and in vivo evaluation of carbon-11 PET tracers for PDE10A in the brain of rodent and nonhuman primate” (Bioorg Med Chem, 2014).

Tests used:
Nucleic Acid = experiment: Ratio of drug level in striatum to cerebellum in Sprague-Dawley rat at 14.8 to 18.5 MBq, iv measured at 30 mins post-injection by gamma counting analysis; assay type: ADME, organism-based; details: in vivo, 0.5 h
Striatum [1] = experiment: Biodistribution in Sprague-Dawley rat striatum at 14.8 to 18.5 MBq, iv measured at 30 mins post-injection by gamma counting analysis; assay type: ADME, organism-based; details: in vivo, 0.5 h
Muscle tissue [2] = experiment: Biodistribution in Sprague-Dawley rat muscle at 14.8 to 18.5 MBq, iv measured at 5 mins post-injection by gamma counting analysis; assay type: ADME, organism-based; details: in vivo
Liver [3] = experiment: Biodistribution in Sprague-Dawley rat liver at 14.8 to 18.5 MBq, iv measured at 60 mins post-injection by gamma counting analysis; assay type: ADME, organism-based; details: in vivo, 1 h
Cerebellum [4] = experiment: Biodistribution in Sprague-Dawley rat cerebellum at 14.8 to 18.5 MBq, iv measured at 5 mins post-injection by gamma counting analysis; assay type: ADME, organism-based; details: in vivo
Striatum [5] = experiment: Biodistribution in Sprague-Dawley rat striatum at 14.8 to 18.5 MBq, iv measured at 5 mins post-injection by gamma counting analysis; assay type: ADME, organism-based; details: in vivo
Rattus norvegicus [6] = experiment: Biodistribution in Sprague-Dawley rat fat at 14.8 to 18.5 MBq, iv measured at 5 mins post-injection by gamma counting analysis; assay type: ADME, organism-based, Adipose tissue; details: in vivo
Kidney [7] = experiment: Biodistribution in Sprague-Dawley rat kidney at 14.8 to 18.5 MBq, iv measured at 5 mins post-injection by gamma counting analysis; assay type: ADME, organism-based; details: in vivo
Lung [8] = experiment: Biodistribution in Sprague-Dawley rat lung at 14.8 to 18.5 MBq, iv measured at 60 mins post-injection by gamma counting analysis; assay type: ADME, organism-based; details: in vivo, 1 h
Heart [9] = experiment: Biodistribution in Sprague-Dawley rat heart at 14.8 to 18.5 MBq, iv measured at 60 mins post-injection by gamma counting analysis; assay type: ADME, organism-based; details: in vivo, 1 h
Liver [10] = experiment: Biodistribution in Sprague-Dawley rat liver at 14.8 to 18.5 MBq, iv measured at 5 mins post-injection by gamma counting analysis; assay type: ADME, organism-based; details: in vivo
Heart [11] = experiment: Biodistribution in Sprague-Dawley rat heart at 14.8 to 18.5 MBq, iv measured at 5 mins post-injection by gamma counting analysis; assay type: ADME, organism-based; details: in vivo
Muscle tissue [12] = experiment: Biodistribution in Sprague-Dawley rat muscle at 14.8 to 18.5 MBq, iv measured at 30 mins post-injection by gamma counting analysis; assay type: ADME, organism-based; details: in vivo, 0.5 h
Brain [13] = experiment: Biodistribution in Sprague-Dawley rat brain at 14.8 to 18.5 MBq, iv measured at 30 mins post-injection by gamma counting analysis; assay type: ADME, organism-based; details: in vivo, 0.5 h
Rattus norvegicus [14] = experiment: Biodistribution in Sprague-Dawley rat fat at 14.8 to 18.5 MBq, iv measured at 60 mins post-injection by gamma counting analysis; assay type: ADME, organism-based, Adipose tissue; details: in vivo, 1 h
Lung [15] = experiment: Biodistribution in Sprague-Dawley rat lung at 14.8 to 18.5 MBq, iv measured at 5 mins post-injection by gamma counting analysis; assay type: ADME, organism-based; details: in vivo
Liver [16] = experiment: Biodistribution in Sprague-Dawley rat liver at 14.8 to 18.5 MBq, iv measured at 30 mins post-injection by gamma counting analysis; assay type: ADME, organism-based; details: in vivo, 0.5 h
Blood [17] = experiment: Biodistribution in Sprague-Dawley rat blood at 14.8 to 18.5 MBq, iv measured at 5 mins post-injection by gamma counting analysis; assay type: ADME, organism-based; details: in vivo
Blood [18] = experiment: Biodistribution in Sprague-Dawley rat blood at 14.8 to 18.5 MBq, iv measured at 30 mins post-injection by gamma counting analysis; assay type: ADME, organism-based; details: in vivo, 0.5 h
Heart [19] = experiment: Biodistribution in Sprague-Dawley rat heart at 14.8 to 18.5 MBq, iv measured at 30 mins post-injection by gamma counting analysis; assay type: ADME, organism-based; details: in vivo, 0.5 h
Lung [20] = experiment: Biodistribution in Sprague-Dawley rat lung at 14.8 to 18.5 MBq, iv measured at 30 mins post-injection by gamma counting analysis; assay type: ADME, organism-based; details: in vivo, 0.5 h
Cerebellum [21] = experiment: Biodistribution in Sprague-Dawley rat cerebellum at 14.8 to 18.5 MBq, iv measured at 30 mins post-injection by gamma counting analysis; assay type: ADME, organism-based; details: in vivo, 0.5 h
Muscle tissue [22] = experiment: Biodistribution in Sprague-Dawley rat muscle at 14.8 to 18.5 MBq, iv measured at 60 mins post-injection by gamma counting analysis; assay type: ADME, organism-based; details: in vivo, 1 h
Blood [23] = experiment: Biodistribution in Sprague-Dawley rat blood at 14.8 to 18.5 MBq, iv measured at 60 mins post-injection by gamma counting analysis; assay type: ADME, organism-based; details: in vivo, 1 h
Striatum [24] = experiment: Biodistribution in Sprague-Dawley rat striatum at 14.8 to 18.5 MBq, iv measured at 60 mins post-injection by gamma counting analysis; assay type: ADME, organism-based; details: in vivo, 1 h
Kidney [25] = experiment: Biodistribution in Sprague-Dawley rat kidney at 14.8 to 18.5 MBq, iv measured at 30 mins post-injection by gamma counting analysis; assay type: ADME, organism-based; details: in vivo, 0.5 h
Kidney [26] = experiment: Biodistribution in Sprague-Dawley rat kidney at 14.8 to 18.5 MBq, iv measured at 60 mins post-injection by gamma counting analysis; assay type: ADME, organism-based; details: in vivo, 1 h
Cerebellum [27] = experiment: Biodistribution in Sprague-Dawley rat cerebellum at 14.8 to 18.5 MBq, iv measured at 60 mins post-injection by gamma counting analysis; assay type: ADME, organism-based; details: in vivo, 1 h
Brain [28] = experiment: Biodistribution in Sprague-Dawley rat brain at 14.8 to 18.5 MBq, iv measured at 60 mins post-injection by gamma counting analysis; assay type: ADME, organism-based; details: in vivo, 1 h
Brain [29] = experiment: Biodistribution in Sprague-Dawley rat brain at 14.8 to 18.5 MBq, iv measured at 5 mins post-injection by gamma counting analysis; assay type: ADME, organism-based; details: in vivo
Rattus norvegicus [30] = experiment: Biodistribution in Sprague-Dawley rat fat at 14.8 to 18.5 MBq, iv measured at 30 mins post-injection by gamma counting analysis; assay type: ADME, organism-based, Adipose tissue; details: in vivo, 0.5 h

SMILES	Drug uptake (Striatum [1])	Drug uptake (Muscle tissue [2])	Drug uptake (Liver [3])	Drug uptake (Cerebellum [4])	Drug uptake (Striatum [5])	Drug uptake (Rattus norvegicus [6])	Drug uptake (Kidney [7])	Drug uptake (Lung [8])	Drug uptake (Heart [9])	Drug uptake (Liver [10])	Drug uptake (Heart [11])	Drug uptake (Muscle tissue [12])	Drug uptake (Brain [13])	Drug uptake (Rattus norvegicus [14])	Drug uptake (Lung [15])	Drug uptake (Liver [16])	Drug uptake (Blood [17])	Drug uptake (Blood [18])	Drug uptake (Heart [19])	Drug uptake (Lung [20])	further results
Cn1ncc(-c2ccncc2)c1-c1ccc(OCc2cc(O[11CH3])c3ccccc3n2)cc1	0.083 % ID/g	0.146 % ID/g	4.588 % ID/g	0.094 % ID/g	0.151 % ID/g	0.066 % ID/g	1.744 % ID/g	0.107 % ID/g	0.103 % ID/g	3.312 % ID/g	0.335 % ID/g	0.093 % ID/g	0.025 % ID/g	0.139 % ID/g	0.643 % ID/g	4.43 % ID/g	0.099 % ID/g	0.067 % ID/g	0.132 % ID/g	0.156 % ID/g	Ratio (Nucleic Acid): 3.6; Drug uptake (Cerebellum [21]): 0.024 % ID/g; Drug uptake (Muscle tissue [22]): 0.052 % ID/g; Drug uptake (Blood [23]): 0.067 % ID/g; Drug uptake (Striatum [24]): 0.037 % ID/g; Drug uptake (Kidney [25]): 0.645 % ID/g; Drug uptake (Kidney [26]): 0.575 % ID/g; Drug uptake (Cerebellum [27]): 0.015 % ID/g; Drug uptake (Brain [28]): 0.015 % ID/g; Drug uptake (Brain [29]): 0.091 % ID/g; Drug uptake (Rattus norvegicus [30]): 0.139 % ID/g
Cn1cc(-c2ccncc2)c(-c2ccc(OCc3ccc4cc(O[11CH3])ccc4n3)cc2)n1	0.16 % ID/g	0.151 % ID/g	1.724 % ID/g	0.251 % ID/g	0.293 % ID/g	0.139 % ID/g	1.333 % ID/g	0.249 % ID/g	0.182 % ID/g	5.357 % ID/g	0.416 % ID/g	0.175 % ID/g	0.105 % ID/g	0.135 % ID/g	0.744 % ID/g	3.172 % ID/g	0.282 % ID/g	0.275 % ID/g	0.264 % ID/g	0.389 % ID/g	Drug uptake (Cerebellum [21]): 0.09 % ID/g; Drug uptake (Muscle tissue [22]): 0.129 % ID/g; Drug uptake (Blood [23]): 0.21 % ID/g; Drug uptake (Striatum [24]): 0.089 % ID/g; Drug uptake (Kidney [25]): 0.883 % ID/g; Drug uptake (Kidney [26]): 0.637 % ID/g; Drug uptake (Cerebellum [27]): 0.066 % ID/g; Drug uptake (Brain [28]): 0.074 % ID/g; Drug uptake (Brain [29]): 0.249 % ID/g; Drug uptake (Rattus norvegicus [30]): 0.221 % ID/g
